Measurements taken from patent US20210292315A1, “SELENIUM-CONTAINING ISOXAZOLAMINE COMPOUND, PREPARATION METHOD THEREFOR, AND USE THEREOF” (SHANGHAI XINGYE PHARMACEUTICAL TECHNOLOGY CO., LTD, priority 2018, published 2021).
Where two headings read alike, the source gives them in different places.

Experiments:
[1] = molecular target: T1, Thioredoxin Reductase 1 (TrxR1) (Homo sapiens, UniProt Q16881); assay: Thioredoxin reductase 1 (TrxR1) activity inhibiting assay, NADPH consumption at 340 nm; format: biochemical; details: insulin/Trx/NADPH system, absorbance 340 nm; read-out: TrxR inhibition IC50
T1 sequence (Q16881 151-649 limits assumed): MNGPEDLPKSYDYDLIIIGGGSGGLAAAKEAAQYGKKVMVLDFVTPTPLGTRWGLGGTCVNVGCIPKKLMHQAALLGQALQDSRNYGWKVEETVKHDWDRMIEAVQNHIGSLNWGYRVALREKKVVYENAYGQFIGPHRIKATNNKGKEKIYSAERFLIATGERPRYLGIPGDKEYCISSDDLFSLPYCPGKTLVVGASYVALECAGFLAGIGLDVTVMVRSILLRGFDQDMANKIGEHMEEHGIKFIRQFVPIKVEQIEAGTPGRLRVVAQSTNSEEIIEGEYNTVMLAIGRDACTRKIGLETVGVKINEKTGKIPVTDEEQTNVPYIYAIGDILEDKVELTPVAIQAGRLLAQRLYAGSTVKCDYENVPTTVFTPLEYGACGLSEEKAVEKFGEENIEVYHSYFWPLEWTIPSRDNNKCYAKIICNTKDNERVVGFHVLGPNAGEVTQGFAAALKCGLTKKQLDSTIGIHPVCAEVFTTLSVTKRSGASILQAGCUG
Procedure: Working solutions: 0.119 mg/mL of TrxR working solution preparation: 175 μL of TrxR stock solution (0.34 mg/mL) was diluted to 500 μL; 1 mM NADPH working solution preparation, NADPH (5 mg) was dissolved in 12 mL potassium phosphate buffer; 1 mM DTNB working solution preparation: 25 mg DTNB was dissolve in 63 mL DMSO; potassium phosphate buffer system preparation: 0.2 mg/mL bovine serum albumin (BSA) and 1 mM EDTA were added to potassium phosphate buffer at pH 7.4 (K2HPO4/KH2PO4).
Methods: The TrxR1 inhibitory activity study of selenium-containing isoxazolamines in vitro. Insulin, NADPH, Trx, the samples and TrxR1 were added to a microcuvette in order, and subsequently added the work buffer (0.1 mol/L potassium phosphate/2 mmol/L EDTA) to a total volume of 0.5 mL. The concentration of each component in the obtained reaction system is: insulin 130 μmol/L, NADPH […] (Sigma), Trx 4 μmol/L, the added substrate (the selenium-containing isoxazolamines treated samples). After determination of the initial absorption at 340 nm, the enzymatic reaction was started by adding 20 μg extracted TrxR1 proteins, the decrease in absorbance at 340 nm was monitored. One unit of enzymatic activity is defined as the consumption. The activity can be calculated from the extinction coefficient of NADPH, and the unit of enzyme activity is defined as: 1U=ΔA340 nm/min×1000, the TR activity could be calculated with U/L. The results are shown in table 2.

[2] = Glutathione peroxidase (GPx)-like activity assay, coupled NADPH oxidation at 340 nm; format: biochemical; details: compound 50 μm, GSH 2.0 mM, pH 7.5, 25° C.; for Initial rate v0, Cum-OOH: peroxide Cum-OOH 1.6 mM; for Initial rate v0, H2O2: peroxide H2O2 1.6 mM; for Initial rate v0, tBuOOH: peroxide tBuOOH 1.6 mM
Procedure: Method: GPX activity of selenium compounds was assayed by ultraviolet spectrophotometry. Glutathione (2.0 mM), EDTA (1 mM), glutathione disulfide reductase (1.7 units mL^−1), and nicotinamide adenine dinucleotide phosphate […] (NADPH; 0.4 mM) were mixed intopotassium phosphate buffer (0.1 M, pH=7.5). The selenium compounds (50 μm) was added to the above mixture At room temperature (25° C.), and the reaction was started by the addition of H2O2, tBuOOH or Cum-OOH (1.6 mM) respectively. The initial reduction rates were calculated from the rate of NADPH oxidation at 340 nm in a GSH assay. Each initial rate was measured at least three times and calculated from the first 5-10% of the reaction by using 6.22 mM^−1 cm^−1 as the molar extinction coefficient for NADPH. For the peroxidase activity, the rates were corrected for the background reaction between peroxide and thiol.

[3] = system: TNF-α; assay: TNF-α activity inhibiting assay: LPS-stimulated peripheral blood, TNF-α by ELISA; format: cell-based, human; details: LPS 10 ng/mL, 6 hours, diluted peripheral blood from healthy volunteers, read-out: TNF-α inhibition (%)
Procedure: Methods: Peripheral blood from healthy volunteers was collected with EDTA anticoagulant tubes. After being diluted 5-fold with 1640 medium (Gibco, USA), the blood was added to 96-well cell culture plates (Costar, USA) and then treated with 10 μL solution of the compound of general formula (I) of the present invention in DMSO (Sigma, USA), and the final concentration of DMSO was 0.2%. After incubation for 60 minutes in an incubator at 37° C. under 5% CO2, 10 μL LPS (Sigma, USA) was added to the reaction system, and the final concentration was 10 ng/mL. After further culturing for 6 hours in the incubator at 37° C. under 5% CO2, the supernatant was collected. The content of TNF-α was determined by ELISA (BD Biosciences, USA). Absorbance was detected at OD450 nm with a microplate reader, with GD 650 nm as reference. The control, a solution containing 0.2% DMSO medium, was as 0% inhibition. Raw data and standard curves were recorded. The four-parameter drug inhibition curve was plotted by XL-fit software and the inhibition rate of each compound was calculated.

Structure (SMILES)	IC50 [1]	IC50 ([3]; Homo sapiens)	IC50 [3]	other results
O=C1CCC(n2[se]c3ccccc3c2=O)C(=O)N1 (stereo not shown) [Compound 1]	5 to 50 µM	10 to 100 µM	–	Initial rate v0, Cum-OOH [2]: 124.5 ± 7.6 μm min^−1; Initial rate v0, H2O2 [2]: 109.7 ± 2.1 μm min^−1; Initial rate v0, tBuOOH [2]: 42.0 ± 3.3 μm min^−1
O=C1CCC(n2[se]c3cccc([N+](=O)[O-])c3c2=O)C(=O)N1 (stereo not shown) [Compound 2]	5 to 50 µM	1 to 10 µM	–	–
Nc1cccc2[se]n(C3CCC(=O)NC3=O)c(=O)c12 (stereo not shown) [Compound 3]	–	< 1 µM	–	–
O=C1CCC(n2[se]c3ccc(F)cc3c2=O)C(=O)N1 (stereo not shown) [Compound 4]	< 5 µM	10 to 100 µM	–	–
O=C1CCC(n2[se]c3c([N+](=O)[O-])cccc3c2=O)C(=O)N1 (stereo not shown) [Compound 5]	50 to 100 µM	1 to 10 µM	–	–
Nc1cccc2c(=O)n(C3CCC(=O)NC3=O)[se]c12 (stereo not shown) [Compound 6]	–	–	< 1 µM	–
O=C1CCC(n2[se]c3cc(F)ccc3c2=O)C(=O)N1 (stereo not shown) [Compound 7]	< 5 µM	10 to 100 µM	–	Initial rate v0, Cum-OOH [2]: 142.2 ± 8.2 μm min^−1; Initial rate v0, H2O2 [2]: 128.2 ± 2.0 μm min^−1; Initial rate v0, tBuOOH [2]: 49.3 ± 5.0 μm min^−1
O=C1CCC(n2[se]c3cc(Cl)ccc3c2=O)C(=O)N1 (stereo not shown) [Compound 8]	5 to 50 µM	10 to 100 µM	–	–
CC(=O)Nc1cccc2c(=O)n(C3CCC(=O)NC3=O)[se]c12 (stereo not shown) [Compound 9]	5 to 50 µM	10 to 100 µM	–	–
O=C1CCC(n2[se]c3c(F)cccc3c2=O)C(=O)N1 (stereo not shown) [Compound 10]	< 5 µM	1 to 10 µM	–	–
COc1cccc2c(=O)n(C3CCC(=O)NC3=O)[se]c12 (stereo not shown) [Compound 11]	–	–	1 to 10 µM	–
COc1ccc2[se]n(C3CCC(=O)NC3=O)c(=O)c2c1 (stereo not shown) [Compound 12]	< 5 µM	1 to 10 µM	–	Initial rate v0, Cum-OOH [2]: 116.8 ± 7.2 μm min^−1; Initial rate v0, H2O2 [2]: 121.7 ± 2.2 μm min^−1; Initial rate v0, tBuOOH [2]: 54.5 ± 5.7 μm min^−1
COc1cc2[se]n(C3CCC(=O)NC3=O)c(=O)c2cc1OC (stereo not shown) [Compound 13]	< 5 µM	1 to 10 µM	–	–
COc1cc2c(=O)n(C3CCC(=O)NC3=O)[se]c2c(OC)c1OC (stereo not shown) [Compound 14]	–	–	< 1 µM	–
Cc1cccc2c(=O)n(C3CCC(=O)NC3=O)[se]c12 (stereo not shown) [Compound 15]	–	–	< 1 µM	–
N#Cc1cccc2c(=O)n(C3CCC(=O)NC3=O)[se]c12 (stereo not shown) [Compound 16]	5 to 50 µM	1 to 10 µM	–	–
CC1(C)S[C@@H]2[C@H](n3[se]c4ccccc4c3=O)C(=O)N2[C@H]1C(=O)O [Compound 17]	< 5 µM	> 100 µM	–	–
CC1(C)S[C@@H]2[C@H](n3[se]c4ccc(F)cc4c3=O)C(=O)N2[C@H]1C(=O)O [Compound 18]	–	–	> 100 µM	–
O=c1c2ccccc2[se]n1C12CC3CC(CC(O)(C3)C1)C2 [Compound 19]	–	–	10 to 100 µM	Initial rate v0, Cum-OOH [2]: 34.2 ± 1.5 μm min^−1; Initial rate v0, H2O2 [2]: 99.7 ± 1.9 μm min^−1; Initial rate v0, tBuOOH [2]: 32.3 ± 3.5 μm min^−1
O=c1c2cc(F)ccc2[se]n1C12CC3CC(CC(O)(C3)C1)C2 [Compound 20]	–	–	10 to 100 µM	–
O=c1c2ccccc2[se]n1-c1nc2ccccc2s1 [Compound 21]	5 to 50 µM	10 to 100 µM	–	Initial rate v0, Cum-OOH [2]: 94.5 ± 4.2 μm min^−1; Initial rate v0, H2O2 [2]: 115.3 ± 2.6 μm min^−1; Initial rate v0, tBuOOH [2]: 35.7 ± 4.2 μm min^−1
O=c1c2ccccc2[se]n1-c1nc2ccc(OC(F)(F)F)cc2s1 [Compound 22]	< 5 µM	1 to 10 µM	–	–

Structure (SMILES)	IC50 [1]	IC50 ([3]; Homo sapiens)	IC50 [3]	other results
COc1ccc2nc(-n3[se]c4ccccc4c3=O)sc2c1 [Compound 23]	5 to 50 µM	–	10 to 100 µM	–
O=C1CC(n2[se]c3ccccc3c2=O)C(=O)N1 (stereo not shown) [Compound 24]	–	–	10 to 100 µM	–
COc1ccc2[se]n(C3CC(=O)NC3=O)c(=O)c2c1 (stereo not shown) [Compound 25]	5 to 50 µM	10 to 100 µM	–	–
O=C1CC(n2[se]c3cc(F)ccc3c2=O)C(=O)N1 (stereo not shown) [Compound 26]	–	–	10 to 100 µM	Initial rate v0, Cum-OOH [2]: 164.5 ± 9.1 μm min^−1; Initial rate v0, H2O2 [2]: 145.2 ± 3.4 μm min^−1; Initial rate v0, tBuOOH [2]: 55.7 ± 5.2 μm min^−1
O=C1CC(n2[se]c3c(F)cccc3c2=O)C(=O)N1 (stereo not shown) [Compound 27]	5 to 50 µM	–	1 to 10 µM	–
Cc1cccc2c(=O)n(C3CC(=O)NC3=O)[se]c12 (stereo not shown) [Compound 28]	–	–	< 1 µM	–
COc1cccc2c(=O)n(-c3nc4ccc(OC(F)(F)F)cc4s3)[se]c12 [Compound 30]	< 5 µM	10 to 100 µM	–	–
O=C1c2ccccc2[Se](=O)N1C12CC3CC(CC(O)(C3)C1)C2 (stereo not shown) [Compound 32]	–	> 100 µM	–	Initial rate v0, Cum-OOH [2]: 11.5 ± 0.2 μm min^−1; Initial rate v0, H2O2 [2]: 36.7 ± 0.8 μm min^−1; Initial rate v0, tBuOOH [2]: 12.0 ± 2.3 μm min^−1
O=C1c2ccccc2[Se](=O)N1c1nc2ccccc2s1 (stereo not shown) [Compound 33]	–	> 100 µM	–	–
O=C1c2ccccc2[Se](=O)N1c1nc2ccc(OC(F)(F)F)cc2s1 (stereo not shown) [Compound 34]	50 to 100 µM	10 to 100 µM	–	Initial rate v0, Cum-OOH [2]: 12.4 ± 0.3 μm min^−1; Initial rate v0, H2O2 [2]: 39.7 ± 1.4 μm min^−1; Initial rate v0, tBuOOH [2]: 14.2 ± 1.1 μm min^−1
Nc1cccc2c1[Se](=O)N(C1CCC(=O)NC1=O)C2=O (stereo not shown) [Compound 35]	–	–	< 1 µM	–
O=C1CCC(N2C(=O)c3cc(F)ccc3[Se]2=O)C(=O)N1 (stereo not shown) [Compound 36]	–	–	10 to 100 µM	–
CC(=O)Nc1cccc2c1[Se](=O)N(C1CCC(=O)NC1=O)C2=O (stereo not shown) [Compound 37]	–	–	10 to 100 µM	–
O=C1CCC(N2C(=O)c3ccc(F)cc3[Se]2=O)C(=O)N1 (stereo not shown) [Compound 39]	–	–	10 to 100 µM	–
COc1cccc2c1[Se](=O)N(C1CCC(=O)NC1=O)C2=O (stereo not shown) [Compound 40]	50 to 100 µM	1 to 10 µM	–	–
O=C1CC(N2C(=O)c3ccccc3[Se]2=O)C(=O)N1 (stereo not shown) [Compound 41]	–	–	10 to 100 µM	–
COc1cccc2c1[Se]N(C1CCC(=O)NC1=O)C2 (stereo not shown) [Compound 44]	–	1 to 10 µM	–	–
COc1ccc2c(c1)CN(C1CCC(=O)NC1=O)[Se]2 (stereo not shown) [Compound 45]	5 to 50 µM	–	–	–
COc1cccc2c1[Se]N(C13CC4CC(CC(O)(C4)C1)C3)C2 [Compound 50]	–	10 to 100 µM	–	–
O=c1c2ccccc2[se]n1-c1ccccc1 [Ebselen, reference compound]	50 to 100 µM	–	–	–
Nc1cccc2c1CN(C1CCC(=O)NC1=O)C2=O (stereo not shown) [Lenadomide, reference compound]	–	< 1 µM	–	–
O=C1CCC(N2C(=O)c3ccccc3C2=O)C(=O)N1 (stereo not shown) [Thalidomide, reference compound]	–	> 100 µM	–	–
